# Molecular target: T1, Recombinant full length human OGA enzyme (Homo sapiens, UniProt O60502)
# T1 construct: Recombinant full length human OGA enzyme was purchased from Origene; purchased Origene
# T1 sequence (O60502 1-916): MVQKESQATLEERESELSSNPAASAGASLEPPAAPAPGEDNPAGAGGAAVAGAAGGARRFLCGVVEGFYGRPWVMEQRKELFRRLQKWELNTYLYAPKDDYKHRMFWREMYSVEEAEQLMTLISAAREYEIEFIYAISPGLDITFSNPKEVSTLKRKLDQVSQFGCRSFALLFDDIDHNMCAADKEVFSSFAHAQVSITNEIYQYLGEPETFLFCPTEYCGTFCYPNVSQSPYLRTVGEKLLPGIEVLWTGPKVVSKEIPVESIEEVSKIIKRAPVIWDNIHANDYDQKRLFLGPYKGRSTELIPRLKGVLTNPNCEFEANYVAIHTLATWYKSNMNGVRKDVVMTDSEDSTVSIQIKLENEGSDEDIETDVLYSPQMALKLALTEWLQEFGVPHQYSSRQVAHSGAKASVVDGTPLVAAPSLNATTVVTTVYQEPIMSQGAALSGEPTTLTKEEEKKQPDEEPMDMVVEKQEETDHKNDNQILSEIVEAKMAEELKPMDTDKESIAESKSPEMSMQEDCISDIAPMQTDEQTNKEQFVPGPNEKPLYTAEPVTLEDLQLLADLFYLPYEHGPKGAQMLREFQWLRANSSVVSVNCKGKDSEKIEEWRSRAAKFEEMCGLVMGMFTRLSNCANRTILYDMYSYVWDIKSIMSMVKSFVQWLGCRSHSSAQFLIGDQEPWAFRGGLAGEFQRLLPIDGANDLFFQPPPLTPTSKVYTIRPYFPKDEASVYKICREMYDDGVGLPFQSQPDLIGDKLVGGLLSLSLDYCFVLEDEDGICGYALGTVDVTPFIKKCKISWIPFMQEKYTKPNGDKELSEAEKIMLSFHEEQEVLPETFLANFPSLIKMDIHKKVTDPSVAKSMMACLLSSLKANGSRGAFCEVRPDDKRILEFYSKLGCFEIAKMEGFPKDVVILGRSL
# Assay: OGA Enzyme Inhibition Biochemical Assay
# Settings: 1 nM OGA, 100 μM 4-MUGlcNAc (Km), pH 6.4, 90 minutes at room temperature, 10-point dose-response from 20 μM
# How it was run: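 Full-length human OGA at 1 nM with 100 μM 4-MUGlcNAc (Km) in McIlvaine buffer pH 6.4 plus 0.01% BSA, 90 min at room temperature, then glycine pH 10 quench. Fluorescence read at Ex 355/Em 460 nm. 10-point, 4-fold dose-response from 20 μM, 4-parameter variable-slope fit.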
row,IC50,Compound
1,< 0.001 µM,"CC(=O)Nc1nc(F)c(CN2CCC[C@H](Cc3ccc(C)nc3)C2)s1 [Example 3-20, (R)-N-(4-fluoro-5-((3-((6-methylpyridin-3-yl)methyl)piperidin-1-yl)methyl)thiazol-2-yl)acetamide]"
2,0.0089 µM,"CC(=O)Nc1ncc(CN2CCC[C@H](Cc3ccc(Cl)cc3)C2)s1 (stereo in doubt) [Example 4-25, N-(5-((3-(4-chlorobenzyl)piperidin-1-yl)methyl)thiazol-2-yl)acetamide]"
3,0.019 µM,"CC(=O)N(C)c1ncc(CN2CCC[C@H](Cc3ncc(F)cn3)C2)s1 [Example 3-16, N-[5-[[(3R)-3-[(5-fluoropyrimidin-2-yl)methyl]-1-piperidyl]methyl]thiazol-2-yl]-N-methyl-acetamide]"
4,0.002 µM,"CC(=O)Nc1ncc(CN2CCC[C@H](Cc3ccc(C(F)F)cn3)C2)s1 [Example 3-5, (R)-N-(5-((3-((5-(difluoromethyl)pyridin-2-yl)methyl)piperidin-1-yl)methyl)thiazol-2-yl)acetamide]"
5,0.97 µM,"CCc1cnn(CC2CCCN(Cc3cnc(NC(C)=O)s3)C2)c1 (stereo not shown) [Example 4-2, N-(5-((3-((4-ethyl-1H-pyrazol-1-yl)methyl)piperidin-1-yl)methyl)thiazol-2-yl)acetamide]"
6,< 0.001 µM,"CC(=O)Nc1nc(F)c(CN2C[C@@H](Cc3ncc(F)cn3)C[C@@H]2C)s1 [Example 3-41, N-(4-fluoro-5-(((2S,4R)-4-((5-fluoropyrimidin-2-yl)methyl)-2-methylpyrrolidin-1-yl)methyl)thiazol-2-yl)acetamide]"
7,0.15 µM,"CC(=O)Nc1nc(Cl)c(CN2CC[C@H](Cc3cc(C)nc(C)c3)C2)s1 [Example 3-38, (S)—N-(4-chloro-5-((3-((2,6-dimethylpyridin-4-yl)methyl)pyrrolidin-1-yl)methyl)thiazol-2-yl)acetamide]"
8,0.31 µM,"CC(=O)Nc1ncc(CN2CCCC(Cn3cc(Br)cn3)C2)s1 (stereo not shown) [Example 4-9, N-(5-((3-((4-bromo-1H-pyrazol-1-yl)methyl)piperidin-1-yl)methyl)thiazol-2-yl)acetamide]"
9,< 0.001 µM,"CC(=O)Nc1nc(F)c(CN2CCC[C@H](Cc3ccnc(C)c3)C2)s1 [Example 3-18, (R)-N-(4-fluoro-5-((3-((2-methylpyridin-4-yl)methyl)piperidin-1-yl)methyl)thiazol-2-yl)acetamide]"
10,0.36 µM,"COc1cnn(CC2CCCN(Cc3cnc(NC(C)=O)s3)C2)c1 (stereo not shown) [Example 4-8, N-(5-((3-((4-methoxy-1H-pyrazol-1-yl)methyl)piperidin-1-yl)methyl)thiazol-2-yl)acetamide]"
11,< 0.001 µM,"COc1cc(C[C@H]2CCCN(Cc3sc(NC(C)=O)nc3F)C2)ccn1 [Example 3-19, (R)-N-(4-fluoro-5-((3-((2-methoxypyridin-4-yl)methyl)piperidin-1-yl)methyl)thiazol-2-yl)acetamide]"
12,0.0013 µM,"COc1cc(C[C@H]2CCCN(Cc3cnc(NC(C)=O)s3)C2)ncn1 [Example 3-23, (R)-N-(5-((3-((6-methoxypyrimidin-4-yl)methyl)piperidin-1-yl)methyl)thiazol-2-yl)acetamide]"
13,< 0.001 µM,"COc1cc(C[C@@H]2C[C@H](C)N(Cc3sc(NC(C)=O)nc3F)C2)ncn1 [Example 3-44, N-(4-fluoro-5-(((2S,4S)-4-((6-methoxypyrimidin-4-yl)methyl)-2-methylpyrrolidin-1-yl)methyl)thiazol-2-yl)acetamide]"
14,0.001 µM,"CC(=O)Nc1ncc(CN2CCC[C@H](Cc3ncc(F)cn3)C2)s1 [Example 3-1, N-[5-[[(3R)-3-[(5-fluoropyrimidin-2-yl)methyl]-1-piperidyl]methyl]thiazol-2-yl]acetamide]"
15,0.0012 µM,"CCC(=O)Nc1nc(F)c(CN2CCC[C@H](Cc3ncc(F)cn3)C2)s1 [Example 3-17, (R)-N-(4-fluoro-5-((3-((5-fluoropyrimidin-2-yl)methyl)piperidin-1-yl)methyl)thiazol-2-yl)propionamide]"
16,0.0022 µM,"CCC(=O)Nc1nc(F)c(CN2CCC[C@H](Cc3cc(OC)ncn3)C2)s1 [Example 3-49, (R)-N-(4-fluoro-5-((3-((6-methoxypyrimidin-4-yl)methyl)piperidin-1-yl)methyl)thiazol-2-yl)propionamide]"

# Second part, the compound before the results:
row,Compound,IC50
1,"COc1ccc(CC2CCN(Cc3cnc(NC(C)=O)s3)C2)cn1 (stereo not shown) [Example 1-23, N-(5-((3-((6-methoxypyridin-3-yl)methyl)pyrrolidin-1-yl)methyl)thiazol-2-yl)acetamide]",0.017 µM
2,"CC(=O)Nc1ncc(CN2CCCC(Cc3cc(F)ccn3)C2)s1 (stereo not shown) [Example 1-13, N-(5-((3-((4-fluoropyridin-2-yl)methyl)piperidin-1-yl)methyl)thiazol-2-yl)acetamide]",0.142 µM
3,"CC(=O)Nc1ncc([C@H](C)N2CCC[C@H](Cc3ncc(F)cn3)C2)s1 (single isomer, unassigned) [Example 2-11]",0.001 µM
4,"CC(=O)Nc1ncc(CN2C[C@H](Cc3ncc(F)cn3)C[C@H]2C)s1 (single isomer, unassigned) [Example 2-20]",0.001 µM
5,"CC(=O)Nc1ncc(CN2CCCC(Cc3ncccc3C(F)(F)F)C2)s1 (stereo not shown) [Example 1-46, N-(5-((3-((3-(trifluoromethyl)pyridin-2-yl)methyl)piperidin-1-yl)methyl)thiazol-2-yl)acetamide]",0.025 µM
6,"CC(=O)Nc1ncc(CN2C[C@@H](Cc3ncc(F)cn3)CC[C@@H]2C)s1 (single isomer, unassigned) [Example 2-26]",0.99 µM
7,"COc1cncc(CC2CCCN(Cc3cnc(NC(C)=O)s3)C2)c1 (stereo not shown) [Example 1-8, N-(5-((3-((5-methoxypyridin-3-yl)methyl)piperidin-1-yl)methyl)thiazol-2-yl)acetamide]",0.029 µM
8,"CC(=O)Nc1ncc(CN2C[C@@H](Cc3ncc(F)cn3)C[C@@H]2C(F)(F)F)s1 (single isomer, unassigned) [Example 2-46]",3.9 µM
9,"CC(=O)Nc1ncc(CN2CC[C@@H](C)[C@@H](Cc3ncc(F)cn3)C2)s1 (single isomer, unassigned) [Example 2-40]",0.027 µM
10,"CC(=O)Nc1ncc(CN2CCCC(Cc3cncc(C)n3)C2)s1 (stereo not shown) [Example 1-33, N-(5-((3-((6-methylpyrazin-2-yl)methyl)piperidin-1-yl)methyl)thiazol-2-yl)acetamide]",0.004 µM
11,"CC(=O)Nc1ncc(CN2CCC(Cc3ccccn3)C2)s1 (stereo not shown) [Example 2-15, N-(5-((3-(pyridin-2-ylmethyl)pyrrolidin-1-yl)methyl)thiazol-2-yl)acetamide]",0.084 µM
12,"CC(=O)Nc1ncc(CN2CCCC(Cc3cccc(F)c3)C2)s1 (stereo not shown) [Example 1-5, N-(5-((3-(3-fluorobenzyl)piperidin-1-yl)methyl)thiazol-2-yl)acetamide]",0.062 µM
13,"COc1cccc(CC2CCN(Cc3cnc(NC(C)=O)s3)C2)c1 (stereo not shown) [Example 1-14, N-(5-((3-(3-methoxybenzyl)pyrrolidin-1-yl)methyl)thiazol-2-yl)acetamide]",0.022 µM
14,"CC(=O)Nc1ncc(CN2CC[C@H](C)[C@@H](Cc3ncc(F)cn3)C2)s1 (single isomer, unassigned) [Example 2-38]",0.027 µM
15,"CC(=O)Nc1ncc(CN2CCC[C@@H]([C@@H](C)c3ncc(F)cn3)C2)s1 (single isomer, unassigned) [Example 2-29]",0.001 µM
16,"CC(=O)Nc1ncc(CN2CCC[C@@H]([C@H](C)c3ncc(F)cn3)C2)s1 (single isomer, unassigned) [Example 2-30]",0.032 µM
17,"CC(=O)Nc1ncc(CN2CCCC(Cc3ncc(C)s3)C2)s1 (stereo not shown) [Example 1-35, N-(5-((3-((5-methylthiazol-2-yl)methyl)piperidin-1-yl)methyl)thiazol-2-yl)acetamide]",0.005 µM
18,"CC(=O)Nc1ncc(CN2CCC[C@H]([C@@H](C)c3ncc(F)cn3)C2)s1 (single isomer, unassigned) [Example 2-31]",0.004 µM
19,"CC(=O)Nc1ncc(CN2CCC(Cc3cccc(F)c3)C2)s1 (stereo not shown) [Example 1-16, N-(5-((3-(3-fluorobenzyl)pyrrolidin-1-yl)methyl)thiazol-2-yl)acetamide]",0.27 µM
20,"CC(=O)Nc1ncc(CN2CCC[C@H]([C@H](C)c3ncc(F)cn3)C2)s1 (single isomer, unassigned) [Example 2-32]",0.33 µM
21,"CC(=O)Nc1ncc(CN2C[C@H](Cc3ncc(F)cn3)C[C@@H]2C(F)(F)F)s1 (single isomer, unassigned) [Example 2-47]",1.2 µM

# Reference: patent publication US11459324B2, “O-glycoprotein-2-acetamido-2-deoxy-3-D-glycopyranosidase inhibitors” (BIOGEN MA INC., priority 2018, dated 2022)
